{
  "source": "paper PMC10221314",
  "about": "(Pharmaceuticals, 2023)",
  "key": {"[1]": {"tested_on": "HFD mice", "parameters": "method as in PMID 30635917", "conditions": "100 mg·Kg^−1; cited from earlier work"}, "[2]": {"tested_on": "LX-2 cells", "test": "mRNA expression of liver fibrosis marker genes in TGFβ1-induced LX-2 cells", "assay_type": "cell-based", "conditions": "10 μM, induced by 2 ng·mL^−1 TGFβ1, 24 h", "method": "(§1) Cells and liver tissue samples were subjected to RNA extraction and purification, followed by reverse transcription of equal amounts of total RNA into […] using a Transcriptor First Strand cDNA Synthesis Kit (Roche). The relative expression levels of the target gene were determined using TaqMan probe/primers with an ABI Q3 quantitative real-time PCR system, while GAPDH/Gapdh was utilized as an internal control for mRNA expression. The fold change in the expression of the target mRNA was calculated using Equation 2^−ΔΔCt.\n(A–E) The LX-2 cells underwent a 24 h treatment of 2 ng·mL^−1 TGFβ1, with or without varying concentrations of candidate compounds, following FBS starvation. […] GAPDH/GAPDH was used as the loading control. The mean ± SD values were obtained from three independent assays. […] ANOVA was followed by Tukey’s test for statistical analysis."}, "[3]": {"tested_on": "RXRα, RXRβ, RXRγ, LXRα, LXRβ, PXR, PPARα, PPARβ, PPARγ, and GPBAR", "test": "NR selectivity one-hybrid assay in HEK-293T cells (panel of metabolic NRs)", "assay_type": "cell-based", "conditions": "with corresponding agonists", "method": "To assess the compound’s specificity, the mammalian one-hybrid assay was conducted. In this assay, HEK-293T cells were co-transfected with a fusion plasmid of Gal4 DBD-NR LBD (comprising RXRα, RXRβ, RXRγ, PPARα, PPARβ, PPARγ, LXRα, LXRβ, GPBAR, and PXR) and the UAS-TK-Luc reporter, followed by treatment with various concentrations of the compound. The positive control consisted of the corresponding nuclear receptor agonist, and the concentration used in the experiment was set to the EC50 of the agonist.\nFigure 3 Compound 10b selectively antagonized FXR. The impact of compound 10b on various NRs was evaluated using a […] one-hybrid assay in HEK-293T cells. The cells were transiently co-transfected with a fusion plasmid of Gal4 DBD-NR-LBD, which included PPARα, PPARβ, PPARγ, RXRα, RXRβ, RXRγ, LXRα, LXRβ, GPBAR, PXR, and FXR, in combination with the UAS-TK-Luc reporter. […] The values are expressed as the means ± SE of three independent experiments. *: p < 0.05 vs. RA (relative agonist)."}, "[4]": {"tested_on": "FXR downstream genes", "conditions": "previous study; cited from earlier work"}, "[5]": {"parameters": "method as in PMID 34970143", "conditions": "120 mg·Kg^−1; cited from earlier work"}, "[6]": {"tested_on": "FXR downstream genes", "test": "mRNA expression of FXR downstream genes in HepG2 cells (qRT-PCR)", "assay_type": "cell-based", "conditions": "50 μM, 24 h", "method": "as §1\n(A) Relative mRNA level of SHP; (B) Relative mRNA level of BSEP; (C) Relative mRNA level of CYP7A1; (D) Relative mRNA level of SREBP1c; (E) Relative mRNA level of PEPCK; (F) Expression level of G6Pase. HepG2 cells were seeded in a 6-well plate and treated with DMSO and varying concentrations of compound 10b for 24 h with or without 50 μM of 1. The mRNA levels of SHP, BSEP, CYP7A1, SREBP1c, PEPCK, and G6Pase were quantified and normalized to β-actin expression."}, "[7]": {"biological_target": "T1, FXR (Homo sapiens, UniProt Q96RI1)", "T1 construct": "a fusion plasmid of Gal4 DBD-NR-LBD, which included PPARα, PPARβ, PPARγ, RXRα, RXRβ, RXRγ, LXRα, LXRβ, GPBAR, PXR, and FXR; expressed in transfected cells; host or cells: HEK-293T", "T1 sequence (Q96RI1 262-486 limits assumed)": "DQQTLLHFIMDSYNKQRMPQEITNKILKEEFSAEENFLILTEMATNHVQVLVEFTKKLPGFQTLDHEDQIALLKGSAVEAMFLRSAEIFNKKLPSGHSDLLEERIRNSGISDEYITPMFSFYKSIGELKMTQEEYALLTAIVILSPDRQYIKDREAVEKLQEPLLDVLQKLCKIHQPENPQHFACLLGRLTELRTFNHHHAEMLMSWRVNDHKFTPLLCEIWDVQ", "test": "Yeast one-hybrid assay of FXR antagonistic activity in HEK-293T cells", "assay_type": "cell-based", "conditions": "HEK-293T cells; CDCA (50 μM) as agonist; mean ± SE of three independent tests", "method": "Cell counting: HEK-293T cells in logarithmic growth phase were digested with 0.25% trypsin, collected, and centrifuged. The trypsin-containing medium was discarded, and 2 mL of fresh phenol red-free DMEM medium containing 5% fetal bovine serum was added. The cells were then mixed with the medium to prepare a cell suspension and counted on a cell counting plate.\nCell plating: A determined number of cells were taken from the cell suspension, diluted with phenol red-free DMEM medium containing 5% fetal bovine serum, and plated at a concentration of 10,000 cells per well (100 µL medium) in a 96-well plate. The plate was then incubated at 37 °C and 5% CO2 for 24 h.\nCell transfection: Fresh phenol red-free DMEM medium was taken in a sterile environment, and the previously extracted pFXR-Binding plasmid and PG4.35[luc2P-9XGA4UAS-Hygro] plasmid were added. The mixture was stirred and allowed to stand at 23 °C for 3 min. Then, a 3% amount of transfection reagent was added to the mixture, and it was allowed to stand at 23 °C for 15 min. The mixture was then added to the 96-well plate at a volume of 10 µL per well and incubated at 37 °C in a 5% CO2 environment for 24 h.\nThe OA derivatives were prepared as 10 mM DMSO stock solutions and further diluted in a concentration gradient, with 10 µL added to each well. The final concentrations of the derivatives ranged from 10 µM to 0.03 µM, with 7 concentration gradients using […] dilution. The test was set with 3 duplicated wells.\nAntagonism activity test: The firefly-Renilla Dual Fluorescence Assay Kit (Promega, #E2940, Madison, WI, USA) was used to measure the antagonism activity of the OA derivatives. Firstly, the firefly fluorescence reagent was added to the 96-well plate at a volume of 70 µL per well and shaken in darkness for 15 min. Then, the fluorescence intensity was measured at a wavelength of 645 ± 30 nm in a microplate reader (BioTek, Winooski, VT, USA). Next, the volume of Renilla reagent was added to the 96-well plate at a volume of 70 µL per well and shaken in darkness for 15 min. The fluorescence intensity was then measured at a wavelength of 525 ± 20 nm.\nData processing: The fluorescence data of firefly were divided by the fluorescence data of Renilla to remove errors, and the antagonism efficiency was calculated using the following formula: antagonism efficiency (%) = [1 − (FCompds. − FDMSO)/(FCDCA − FDMSO)] × 100%. In the formula, F represents fluorescence intensity. The antagonistic efficiency data were obtained as a concentration–effect curve using Graphpad Prism 8.0 software, and the corresponding IC50 value was calculated."}},
  "note": "Entries after “also recorded” stand apart in the source; their conditions may differ.",
  "data": [
    {"smiles": "C=C(C)[C@@H]1CC[C@]2(C(=O)O)CC[C@]3(C)[C@H](CC[C@@H]4[C@@]5(C)CC[C@H](O)C(C)(C)[C@@H]5CC[C@]43C)[C@@H]12", "note": "[BA, Betulinic acid]", "values": [
      {"measurement": "liver TC levels", "setting": "[1]", "value": "reduce"},
      {"measurement": "liver TG levels", "setting": "[1]", "value": "reduce"}
    ]},
    {"smiles": "C/C=C1\\C(=O)C[C@H]2[C@@H]3CCC4=CC(=O)CC[C@]4(C)[C@H]3CC[C@]12C", "note": "[guggulsterone, reference compound]", "values": [
      {"measurement": "mRNA expression of ACTA2", "setting": "[2]", "value": "significantly decreased"},
      {"measurement": "mRNA expression of COL1A1", "setting": "[2]", "value": "significantly decreased"},
      {"measurement": "antagonism of metabolic NRs", "setting": "[3]", "value": "Most NRs were antagonized"}
    ]},
    {"smiles": "CC(=O)CCCC(=O)OC1CC2C3(C)CCC(O)C(C)(C)C3CCC2(C)C2(C)CCC3(C(=O)O)CCC(C)(C)CC3C12", "note": "(centres unmarked) [Compound 7]", "values": [
      {"measurement": "CYP7A1 gene expression", "setting": "[4]", "value": "downregulated; also recorded: significantly reduces"},
      {"measurement": "G6Pase expression", "setting": "[4]", "value": "significantly reduces"},
      {"measurement": "PEPCK expression", "setting": "[4]", "value": "significantly reduces"}
    ]},
    {"smiles": "C[C@@H]1CC[C@]2(C(=O)O[C@@H]3O[C@H](CO)[C@@H](O)[C@H](O)[C@H]3O)CC[C@]3(C)C(=CC[C@@H]4[C@@]5(C)CC[C@H](O)[C@](C)(C(=O)O)[C@@H]5CC[C@]43C)[C@@H]2[C@]1(C)O", "note": "[IsA, Ilexsaponin A1]", "values": [
      {"measurement": "liver TC levels", "setting": "[5]", "value": "reducing"},
      {"measurement": "liver TG", "setting": "[5]", "value": "reducing"},
      {"measurement": "serum TG", "setting": "[5]", "value": "reducing"}
    ]},
    {"smiles": "C[C@H](CCC(=O)O)[C@H]1CC[C@H]2[C@@H]3[C@H](O)C[C@@H]4C[C@H](O)CC[C@]4(C)[C@H]3CC[C@]12C", "note": "[CDCA, Chenodeoxycholic acid, reference compound]", "values": [
      {"measurement": "expression of CYP7A1 (mRNA)", "setting": "[6]", "value": "decrease"}
    ]},
    {"smiles": "CC[C@H]1[C@@H](O)[C@@H]2[C@H](CC[C@]3(C)[C@@H]([C@H](C)CCC(=O)O)CC[C@@H]23)[C@@]2(C)CC[C@@H](O)C[C@@H]12", "note": "[OCA, obeticholic acid, reference compound]", "values": [
      {"measurement": "mRNA expression of CTGF", "setting": "[2]", "value": "decreased"}
    ]},
    {"smiles": "CC1(C)CC[C@]2(C(=O)O)CC[C@]3(C)[C@H]([C@H](OC(=O)CC[C@H](NC(=O)OC(C)(C)C)C(=O)O)CC4[C@@]5(C)CC[C@H](O)C(C)(C)C5CC[C@]43C)[C@@H]2C1", "note": "(stereo partly drawn) [Compound 11b, 3-hydroxy-12β-((S)-4′-((tert-butoxycarbonyl)amino)-4′-carboxybutanoyl)oxy-13H-olean-28-oic acid]", "values": [
      {"measurement": "IC50", "setting": "[7]", "value": "7.65 ± 0.35", "unit": "µM"}
    ]}
  ]
}
